Source: article PMC8689653 (ACS Catalysis, 2021)

Tested on: Lp-NOX
Experiment: NADH oxidation, absorbance at […] nm, Michaelis-Menten fit
Format: biochemical, Lactiplantibacillus pentosus
Conditions: free enzyme; 0.2 mM NADH, 0.025-0.2 mM flavin, 25 mM phosphate pH 7, 30 °C

| SMILES | Km [µM] |
| --- | --- |
| Cc1cc2nc3c(=O)[nH]c(=O)nc-3n(C[C@H](O)[C@H](O)[C@H](O)COP(=O)(O)OP(=O)(O)OC[C@H]3O[C@@H](n4cnc5c(N)ncnc54)[C@H](O)[C@@H]3O)c2cc1C [FAD] | 41 ± 20 |
| Cc1cc2nc3c(=O)[nH]c(=O)nc-3n(C[C@H](O)[C@H](O)[C@H](O)COP(=O)(O)O)c2cc1C [FMN] | 215 ± 100 |
